The record followed here is paper PMC6395926, “Mass Balance and Drug Interaction Potential of Intravenous Eravacycline Administered to Healthy Subjects” (Antimicrobial Agents and Chemotherapy, 2019).

Common to all, as to assay type: in vivo, human
Data set [1] can be described thus: Mass balance study: PK of total radioactivity in whole blood and plasma. The settings on record: for Cmax, total radioactivity: geometric mean (%CV), n = 5. The text has this:
(§1) (ii) Study design. This was a single-center, open-label study of a single i.v. dose of [^14C]eravacycline to assess the mass balance recovery and PK of eravacycline. The primary objectives were to determine mass balance recovery, determine routes and rates of excretion, provide metabolite profiling and structural identification, and assess the PK of radioactivity in plasma and whole blood. Subjects were screened for inclusion in the study, including a detailed medical history, physical examination, and laboratory evaluations, in the 28 days before dosing. Eligible subjects were admitted to the clinical study unit at approximately 21:00 on the evening prior to study drug administration (day −1) and remained on site until 240 h postdose for collection of urine, feces, and blood samples. After an overnight fast, each subject received 60 mg [^14C]eravacycline containing not more than 3.8 MBq (105 μCi) ^14C as a single i.v. infusion over 60 min.
(iv) Determination of radioactivity. […] Plasma and whole-blood concentrations of total radioactivity were determined using an analytical method at Quotient Bioresearch (Rushden, Northamptonshire, UK). The lower limit of quantification (LLOQ) for total radioactivity was 11 to 13 ng equivalents (equiv)/ml in plasma and 41 to 46 ng equiv/g in whole blood.
(vi) Study assessments. PK parameters were determined for total radioactivity in plasma and whole blood. Eravacycline, TP-498, and TP-6208 concentrations in plasma were quantified using a validated assay with internal standards. […]
(§2) (viii) Study analysis. Descriptive statistics (mean, median, standard deviation [SD], percent coefficient of variation [%CV], minimum, maximum, number, geometric mean, and geometric %CV) were calculated for all concentration data. Pharmacokinetic parameters were calculated using Phoenix WinNonlin v6.3 (Certera USA, Inc.).

Data set [2] is described as follows: Mass balance study: plasma PK of eravacycline, TP-498 and TP-6208 (LC-MS). The conditions noted are these: plasma, single i.v. dose of [14C]eravacycline.
Source text: as §1
(vi) Study assessments. PK parameters were determined for total radioactivity in plasma and whole blood. Eravacycline, TP-498, and TP-6208 concentrations in plasma were quantified using a validated assay with internal standards. The following PK parameters were determined: Cmax, Tmax, time from dosing before the first quantifiable concentration in a concentration versus time profile (Tlag), AUC0–t, AUC0–24, AUC0–∞, the percentage of AUC0–∞ extrapolated beyond the time of the last measurable concentration (AUC%extrap), the slope of the apparent terminal phase (lambda-z), the apparent terminal half-life (t1/2), the mean residence time estimated between time zero and infinity (MRT0-∞), the apparent volume of plasma cleared of analyte per unit time (CL), and the volume of distribution of analyte at steady state (Vss).
Plasma concentrations of eravacycline, TP-498, and TP-6208 were measured by liquid chromatography with tandem mass spectrometry (LC-MS). The LLOQ was 5 ng/ml for eravacycline, TP-498, and TP-6208. The calibration ranges for eravacycline, TP-498, and TP-6208 in human urine were 50 to 10,000 ng/ml, 50 to 1,000 ng/ml, and 20 to 1,000 ng/ml, respectively. The calibration ranges for eravacycline, TP-498, and TP-6208 in human plasma were 5 to 500 ng/ml.
as §2

Data set [3] can be described thus: Itraconazole drug interaction study: safety/tolerability. How it is done: (iii) Study assessments. Blood samples for PK analysis of eravacycline and its metabolites, TP-498, TP-6208, and TP-034, were collected predose and 1, 2, 4, 6, 8, 12, 24, 36, and 48 h after the start of the i.v. infusion on day 1 and day 10 (itraconazole) or day 1 and day 17 (rifampin). Safety assessments included AEs, clinical laboratory safety tests (hematology, serum chemistry, electrolytes, coagulation, urinalysis, and lipid profile), vital signs, physical examinations, and 12-lead ECG.

Where [4] appears, read: human, iv, 60 mg, geometric mean (%CV), n = 2.

The structures appear in SMILES notation.

By clearance is commonly meant the rate of elimination divided by the concentration. Lower therefore signals inefficient removal. One may read the half-life as the time needed for the level to fall by half in the phase considered. High values mean slow loss, low ones fast loss. By Tmax is commonly meant the time at which the peak concentration occurs. By AUC(0-inf) is commonly meant the area under the concentration-time curve extrapolated to infinity. The low end stands for less exposure, the high end for more exposure. The term Cmax denotes the peak of the concentration-time curve. For the compound `CN(C)[C@@H]1C(O)=C(C(N)=O)C(=O)[C@@]2(O)C(O)=C3C(=O)c4c(O)c(NC(=O)CN5CCCC5)cc(F)c4C[C@H]3C[C@@H]12` [eravacycline], the entries for the “Cmax, total radioactivity” value in data set [1] (plasma) and in data set [1] (whole blood) were 893 (18.0) ng equiv/ml and 911 (14.5) ng equiv/ml, respectively. Moreover, the “time postdose total radioactivity remained quantifiable” value in data set [1] (plasma, majority of subjects) is on record as “up to 241 h”. The same compound gave a clearance in data set [2] (setting [4]) of 228 ± 13.8 mL/min. The compound also gave a half-life in data set [2] (setting [4]) of 18.2 ± 5 h. In data set [2] (human, iv, 60 mg, geometric mean (%CV), n = 2, read-out: MRT0-∞), the MRT inf came to 15.9 ± 8.9 h. In addition, the CL renal in data set [2] (human, iv, 60 mg, geometric mean (%CV), n = 5) was found to be 41.9 ± 16.6 mL/min. Also, the time of peak concentration (Tmax) in data set [2] (male, human, iv, 60 mg) was in the range of 0.55 to 1 h. For the same compound, the AUC(0-inf) in data set [2] (male, human, iv, 60 mg, geometric mean (%CV), n = 2) was 4380 ng·h/mL. For the same compound, the Cmax in data set [2] (male, human, iv, 60 mg, geometric mean (%CV), n = 5, read-out: Cmax) was 1100 ng/mL. In addition, the Vd in data set [2] (male, human, iv, 60 mg, geometric mean (%CV), n = 2, read-out: Vss (volume of distribution)) amounted to 217 ± 4.9 L. In addition, the “time postdose plasma concentrations were quantifiable” value in data set [2] is “approximately 73 h”. Moreover, the “subjects who experienced an AE” value is on record as 10.0% in data set [3] (eravacycline i.v. plus itraconazole treatment period, 1 of 10 subjects) and 8.3% in data set [3] (eravacycline i.v. treatment period, 1 of 12 subjects). For the same compound, in data set [3] (itraconazole study), the “serious AEs or discontinuations for AEs related to study drug” value is recorded as “No serious AEs”.
